{"source": "patent US12611415B2", "about": "“Methods and compounds for treatment of metabolic disease” (Monash University, priority 2019, dated 2026)", "system": "C57BL6/J mice fed high fat diet (HFD)", "assay": "Celecoxib / Compound I-1 treatment study in HFD fed mice", "assay_type": "in vivo, mouse", "experimental": "All animal work was conducted per Australian National Health and Medical Research Council (NHMRC) guidelines for the care and use of animals in research. Seven-week-old male Sprague Dawley rats or C57BL6/J mice were randomized and housed in groups of 2-5 in a temperature-controlled room under specific-pathogen free (SPF) or standard animal housing conditions with free access to food and water.\nIn the observational studies, mice or rats were fed semi-purified normal chow diet (control fat diet (CFD), 7% w/w fat and 16% total energy from fat, AIN93G, Specialty Feeds Pty Ltd, Australia) or high fat diet (HFD, 36% w/w fat and 59% total energy from fat, SF03-002, Specialty Feeds Pty Ltd, Australia) for a total duration of 6, 15, 23 or 32 weeks to evaluate changes to mesenteric lymph composition, structure and function over time during the progression of obesity. Mice or rats were fed with the same CFD or HFD for 6-10 weeks prior to collection of mesenteric lymph for in vitro incubation with lymphatic endothelial cells (LECs) and adipocytes, respectively.\nA “prevention study” and a “treatment study” were also conducted. Both the prevention and treatment studies included mice fed the CFD or HFD for 15 or 23 weeks, as described above. In the prevention study, an additional group of mice was fed the HFD supplemented with celecoxib at a dose equivalent to ˜29 mg/kg/day (based on average food intake) for 15 weeks. In the treatment study, animals were fed the HFD for 15 weeks followed by a HFD supplemented with celecoxib (˜29 mg/kg/day) or Compound I-1 (˜9 mg/kg/day celecoxib equivalents) for 7-8 weeks. The celecoxib was purchased from MedChemExpress (NJ, USA), and Compound I-1 was synthesized consistent with the description in WO2016/023082.\nAcross all studies, body mass was measured once per week. Oral glucose tolerance tests (OGTTs) were conducted at 5, 14, 22 and/or 31 weeks after commencing feeding mice the HFD or CFD. To perform OGTTs, mice were routinely handled for 2 weeks prior to minimize the stress caused by handling during the experiment. On the day of the OGTT, mice were fasted for 4 h (7-11 am) but still had free access to water. Glucose (50 mg D-glucose in 200 μL water) was administered via oral gavage and a drop of blood was collected from the tail tip at fixed time points (0, 15, 30, 60, 90 and 120 mins). Blood glucose was measured using a One-touch glucometer (AccuCheck Performa, Roche, Switzerland). Plasma was separated from the remaining blood sample via centrifugation and reserved for measurement of plasma insulin concentrations via ELISA as described above.\nAt the end of all experiments, mice were euthanised via cervical dislocation and rats were euthanised via intracardiac injection of sodium pentobarbitone (100 mg). Organs and tissues, including the lymph nodes and adipose tissue depots, were carefully collected. The mass of adipose tissue depots was weighed to determine adiposity.\nMesenteric adipose tissue samples (for lymphatic capillary and mesenteric lymphatic vessel analysis) and small intestine samples (for villi and lacteal analysis) were collected with fine forceps. Whole mount adipose tissue was cut into ˜3 mm×3 mm×2 mm pieces and whole mount small intestine was cut into 1.5 cm segments. Immediately after collection, the tissue samples were fixed in 4% paraformaldehyde in PBS at 4° C. overnight. Fat associated lymph clusters (FALCs) were identified by intraperitoneal injection of FluoSphere Carboxylate-Modified Nanospheres, 100 nm, yellow-green (505/515, Invitrogen, CA, USA) and collected with fine forceps under a Zeiss Stemi 2000-CS surgical microscope (2.5× magnification) with a fluorescence adaptor (Nightsea, MA, USA). The fluorescent light was filtered through a cyan color light filter (Electron Microscopy Science, PA, USA) to visualize the nanospheres and thus the FALCs. FALCs were cleaned of adipose tissue after collected and placed whole in 4% paraformaldehyde in PBS at 4° C. overnight. […]", "key": {"[1]": {"details": "Compound I-1 ~9 mg/kg/day celecoxib equivalents, celecoxib at a 3.2-fold higher dose"}, "[2]": {"details": "HFD 15 weeks, then 7 weeks drug in HFD feed"}, "[3]": {"details": "HFD 15 weeks, then 7 weeks drug in HFD feed, Compound I-1 ~9 mg/kg/day celecoxib equivalents, celecoxib ~29 mg/kg/day"}}, "note": "“Also recorded” adds a separate entry of the source.", "data": [{"smiles": "CCCCCCCCCCCCCCCC(=O)OCC(COC(=O)CCCCCCCCCCCCCCC)OC(=O)CCCCCCCCC(=O)Oc1cc(C)cc(C)c1C(C)(C)CC(=O)NS(=O)(=O)c1ccc(-n2nc(C(F)(F)F)cc2-c2ccc(C)cc2)cc1", "note": "[Compound I-1]", "values": [{"measurement": "body weight gain induced by HFD (obesity)", "setting": "[1]", "result": "significantly reduced; also recorded: reverses, more effectively"}, {"measurement": "hyperinsulinemia in the fasted state and after glucose challenge (insulin resistance)", "setting": "[1]", "result": "significantly improved; also recorded: reverses, more effectively"}, {"measurement": "oral glucose tolerance", "setting": "[1]", "result": "significantly improved"}, {"measurement": "SAT and VAT accumulation", "setting": "Compound I-1 ~9 mg/kg/day celecoxib equivalents, compared with celecoxib at a 3.2-fold higher dose", "result": "more significantly reduced"}, {"measurement": "cholesterol levels in mesenteric lymph", "setting": "[2]", "result": "decreased"}, {"measurement": "lymph lipid profile (lipidomic analysis of mesenteric lymph) / lymph composition", "setting": "[2]", "result": "shift in the lymph lipid profile from a HFD-like toward a more CFD-like profile; also recorded: reverses, more effectively"}, {"measurement": "total concentrations of triglyceride, phospholipid and glucose in mesenteric lymph", "setting": "[2]", "result": "trends toward a decrease"}, {"measurement": "total free fatty acid (FFA) in mesenteric lymph", "setting": "[2]", "result": "significantly increased"}, {"measurement": "immune cell numbers in mesenteric lymph nodes reversed to levels similar to CFD mice", "setting": "[3]", "result": "successfully reversed"}, {"measurement": "immune cells in the mesenteric lymph fluid", "setting": "[3]", "result": "reduced"}, {"measurement": "lymph leakage into VAT", "setting": "[3]", "result": "reversed; also recorded: reverses, more effectively"}, {"measurement": "mesenteric lymph levels of PGE2", "setting": "[3]", "result": "reduced"}, {"measurement": "mesenteric lymph levels of VEGF-C", "setting": "[3]", "result": "below the limit of quantification; also recorded: reverses, more effectively"}, {"measurement": "mesenteric lymphatic branching", "setting": "[3]", "result": "reversed; also recorded: reverses, more effectively"}, {"measurement": "mesenteric lymphatic dysfunction, visceral obesity, inflammation, glucose intolerance, and insulin resistance associated with obesity", "setting": "compared with non-lymph-targeted celecoxib", "result": "reverse, more effectively"}]}]}
